Experimental data as given in patent publication US12492182B2, “Hydroxytriazine compounds and pharmaceutical use thereof” (Japan Tobacco Inc., priority 2015, dated 2025).
Like-named read-outs stand apart in the source and are kept apart here.

Columns and labels:
human mPGES-1 = target: T1, human mPGES-1 (Homo sapiens, UniProt O14684); test: Evaluation of human mPGES-1 enzyme inhibitory activity (HTRF measurement of PGE2); type: biochemical; details: IC50 value; microsome fraction of CHO-S cells expressing human mPGES-1, PGH2 substrate, PGE2 by HTRF; read-out: humans mPGES-1 enzyme inhibitory activity
T1 construct: made in house; host or cells: Chinese hamster ovary-derived cells (FreeStyle CHO-S), transient transfection of pcDNA3.1(+)/human mPGES-1; microsome fraction
T1 sequence (O14684 1-152): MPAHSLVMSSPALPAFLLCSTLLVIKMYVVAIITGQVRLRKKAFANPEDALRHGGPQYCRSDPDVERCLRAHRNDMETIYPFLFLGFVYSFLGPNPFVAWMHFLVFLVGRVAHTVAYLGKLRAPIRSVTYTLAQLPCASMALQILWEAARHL
Description: Experimental Example 1: Evaluation of Human mPGES-1 Enzyme Inhibitory Activity
The human mPGES-1 enzyme inhibitory activity of a test article was evaluated according to the report of Xu et al. (XU, D et al. MF63 [2-(6-chloro-1H-phenanthro[9,10-d]imidazol-2-yl)-isophthalonitrile], a selective microsomal prostaglandin E synthase-1 inhibitor relieves pyresis and pain in preclinical models of inflammation. J Pharmacol Exp Ther. September 2008, Vol. 326, No. 3, pages 754-763). The amount of PGE2 produced by human mPGES-1 in the presence of a test article was measured by the HTRF (homogeneous time resolved fluorescence) method, and the human mPGES-1 enzyme inhibitory activity of the test article was determined.
1) Preparation of Human mPGES-1 Expressing Cell Microsome Fraction
A DNA fragment containing human mPGES-1, which is added with a BamHI recognition cleavage sequence just before the translation initiation codon and an EcoRI recognition cleavage sequence just after the translation termination codon, was amplified by the PCR (Polymerase Chain Reaction) method using a human mPGES-1 expression plasmid DNA (pME-18S/iPGES-1) prepared in-house as a template. The purified DNA fragment was digested with BamHI and EcoRI, and ligated to pcDNA3.1(+) (Invitrogen, model number V790-20), similarly_digested with BamHI and EcoRI, by using a DNA Ligation kit ver. 2.1 (Takara Bio, model number 6022). The human mPGES-1 expression plasmid DNA was isolated from Escherichia coli DH5a (TOYOBO, model number DNA-903) transformed with the obtained ligation product. The base sequence of human mPGES-1 cloned to a vector was determined by the Dye Terminator method using BigDye Terminator v3.1 Cycle Sequencing Kit (Applied Biosystems, #4337455). The determined sequence was identical with the sequence of the protein translational region of human mPGES-1 (Accession number NM 004878) registered in the NCBI Reference Database.
Human mPGES-1 expression plasmid DNA was transfected into Chinese hamster ovary-derived cells (FreeStyle CHO-S Cell, Invitrogen, #R^800-07) by using a transgene reagent (FreeStyle MAX Reagent (Invitrogen, #16447-100)), and cultured with shaking (8% CO2, 37° C.) in a medium containing 8 mmol/L L-glutamine (GIBCO FreeStyle CHO Expression Medium, Invitrogen, #12651-022) for 48 hr.
The CHO-S cells were suspended in Homogenate Buffer (100 mmol/L potassium phosphate (pH 7.4), 250 mmol/L Sucrose, 100 mmol/L EDTA, complete EDTA free (Roche, #1873580)). Using an ultrasonic disruptor UD-201 (Tomy Seiko), the suspended cells were disrupted at output:3, duty cycle:50 for 30 seconds. The precipitate was removed by centrifugation (1,000×g, 5 min, 4° C.), and the supernatant was centrifuged (5,000×g, 10 min, 4° C.). The supernatant was further centrifuged (105,000×g, 60 min, 4° C.). The obtained precipitate was suspended in Resuspension Buffer (100 mmol/L potassium phosphate (pH 7.4), 250 mmol/L sucrose, 100 mmol/L EDTA, 10% glycerol) to give a microsome fraction.
The protein concentration of the microsome fraction was measured by the Bradford method (Protein Assay Kit, Bio-Rad). The microsome fraction was rapidly frozen in liquid nitrogen and preserved at −80° C. Human mPGES-1 in the microsome fraction was detected by Western Blot using rabbit anti-mPGES-1 polyclonal antibody (ThermoFisher Scientific, #PA1-10264).
2) Evaluation of Human mPGES-1 Enzyme Inhibitory Activity
A test article solution diluted with 0.1 mol/L potassium phosphate, pH 7.4 (hereinafter to be referred to as KPB) or DMSO (Nacalai Tesque, #13407-45) was added at 5 μL/well to 96 well V-bottom plate (Corning, #3363). The final DMSO concentration during the reaction was set to 2%(v/v). Furthermore, a microsome fraction of CHO-S cells expressing human mPGES-1, which was diluted with reduced GSH (12.5 mmol/L KPB solution, SIGMA, #G6529-25G) such that the protein concentration was 5 μg/mL, was added at 20 μL/well. […]

A549 cell = test: Evaluation of PGE2 production inhibitory action using A549 cell (IL-1β stimulated); type: cell-based, human
Description: Experimental Example 2: Evaluation of PGE2 Production Inhibitory Action Using A549 Cell
A549 cell (Japan Health Sciences Foundation Research Resources Bank), which is cell line derived from humans lung cancer, was suspended in assay medium (Ham's F-12K (Wako, #080-08565) containing 2% FBS (Hyclone Laboratories, #SH30910.03), 100 units/mL penicillin and 100 μg/mL streptomycin (Invitrogen, #15140-122)), the suspension was added at 2.5×10^4 cells/100 μL/well to 96 well flat-bottom plate (Corning, #353072), and the plate was left standing for 20 hr in a CO2 incubator set at 37° C. The test article was serially diluted with DMSO (Nacalai Tesque, #13407-45), and then 20-fold diluted with the assay medium to prepare a test article solution having a ten-fold concentration of the final concentration. The final DMSO concentration during the reaction was set to 0.5% (v/v). The medium was removed from the plate in which the cell was added, new assay medium was added at 160 μL/well to the plate, and the plate was left standing for 10 min in a CO2 incubator. Then, the test article solution was added at 20 μL/well to the plate, and the plate was left standing for 30 min in a CO2 incubator. Next, recombinant humans IL-1β (R&D Systems, #201-LB) as a stimulant to enhance PGE2 production due to increase of mPGES-1 mRNA expression was added at 20 μL/well (the final concentration was 1 ng/mL) to the plate, and the plate was left standing for 18 hr in a CO2 incubator. The supernatant was collected at 180 μL/well, and the PGE2 concentration was measured using Prostaglandin E2 assay (CISbio Bioassays, #62P2APEC) according to the manual. As the reference standard for analytical curve, PGE2 (Cayman Chemical, #14010) was used. Using EnVision 2104 (Perkin Elmer), the time-resolved fluorescence at 620 nm and 665 nm relative to the excitation light at 337 nm was measured. PGE2 concentration was extrapolated from the PGE2 analytical curve. Average of the PGE2 concentrations of the respectively-treated wells was used as the data.
The PGE2 production inhibitory activity (%) of the test article was calculated according to the following Formula 3. PGE2 production inhibitory activity(%)=(PGE2A−PGE2X)/(PGE2A−PGE2B)×100 [Formula 3] • PGE2A: PGE2 concentration of vehicle-treated well • PGE2B: PGE2 concentration of blank well (no addition of recombinant humans IL-1B) • PGE2X: PGE2 concentration of test article-treated well

[1] = A549 cell, recombinant human IL-1β stimulation, read-out: cell PGE2 production inhibitory activity (IC50 value)
[2] = Homo sapiens, A549, A549 cell, recombinant human IL-1β stimulation, read-out: cell PGE2 production inhibitory activity (IC50 value)
[3] = Homo sapiens, A549, 18 h, IC50 value, A549 cell, recombinant IL-1β 1 ng/mL, 18 hr, PGE2 in supernatant, read-out: cell PGE2 production inhibitory activity

Row | SMILES | IC50 (human mPGES-1) | IC50 (A549 cell; [1]) | IC50 (A549 cell; [2]) | IC50 (A549 cell; [3])
1 | CCC(OC)(C(=O)NCc1ccc(Cl)c(-c2nc(O)nc(-c3cccc(C(C)C)c3)n2)c1)C(F)(F)F (single isomer, unassigned) [Example 132] | 0.8 nM | 4.8 nM | – | –
2 | CCC(OC)(C(=O)NCc1ccc(Cl)c(-c2nc(O)nc(-c3cccc(C(C)C)c3)n2)c1)C(F)(F)F (single isomer, unassigned) [Example 134] | 1.7 nM | 19 nM | – | –
3 | CCC[C@@H](C)Oc1ccc(-c2nc(O)nc(-c3cc(CNC(=O)C(CC)(OC)C(F)(F)F)ccc3Cl)n2)cn1 (single isomer, unassigned) [Example 142] | 7.7 nM | – | 2.1 nM | –
4 | CCC[C@@H](C)Oc1ccc(-c2nc(O)nc(-c3cc(CNC(=O)C(CC)(OC)C(F)(F)F)ccc3Cl)n2)cn1 (single isomer, unassigned) [Example 143] | 3.9 nM | 1.6 nM | – | –
5 | CCC[C@H](C)Oc1ccc(-c2nc(O)nc(-c3cc(CNC(=O)C(CC)(OC)C(F)(F)F)ccc3Cl)n2)cn1 (single isomer, unassigned) [Example 144] | 3.9 nM | – | 1.6 nM | –
6 | CCC[C@H](C)Oc1ccc(-c2nc(O)nc(-c3cc(CNC(=O)C(CC)(OC)C(F)(F)F)ccc3Cl)n2)cn1 (single isomer, unassigned) [Example 145] | 4.5 nM | 1.7 nM | – | –
7 | CCCOc1cccc(-c2nc(O)nc(-c3cc(CNC(=O)C(C)(C)C(F)(F)F)ccc3Cl)n2)c1 [Example 1] | 0.9 nM | – | – | 27 nM
8 | CCCOc1ccc(-c2nc(O)nc(-c3cc(CNC(=O)C(C)(C)C(F)(F)F)ccc3Cl)n2)cn1 [Example 2] | 1.1 nM | – | – | 8.6 nM
9 | CCCCOc1cccc(-c2nc(O)nc(-c3cc(CNC(=O)C(C)(C)C(F)(F)F)ccc3Cl)n2)c1 [Example 3] | 2.1 nM | – | – | 27 nM
10 | CCCOc1ccc(-c2nc(O)nc(-c3cc(CNC(=O)C(C)(C)C(F)(F)F)ccc3Cl)n2)cc1C(C)C [Example 4] | 12 nM | – | – | 2.9 nM
11 | CCCCc1cccc(-c2nc(O)nc(-c3cc(CNC(=O)C(C)(C)C(F)(F)F)ccc3Cl)n2)c1 [Example 5] | 1.1 nM | – | – | 30 nM
12 | CCC(C)(C)C(=O)NCc1ccc(Cl)c(-c2nc(O)nc(-c3cccc(C(C)C)c3)n2)c1 [Example 6] | 0.4 nM | – | – | 23 nM
13 | CCCC(C)(C)C(=O)NCc1ccc(Cl)c(-c2nc(O)nc(-c3cccc(C(C)C)c3)n2)c1 [Example 7] | 1 nM | – | – | 68 nM
